Assay in all cases: relative viability (nuclei count vs DMSO), 5 days (fraction); higher = more cells survive
Compound in the test “Idelalisib + OSI-027”: CC[C@H](Nc1ncnc2[nH]cnc12)c1nc2cccc(F)c2c(=O)n1-c1ccccc1 [Idelalisib] + COc1cccc2cc(-c3nc([C@H]4CC[C@H](C(=O)O)CC4)n4ncnc(N)c34)[nH]c12 [OSI-027] (partner 0.5 µM)
The procedure, abridged:
(§1)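 Lung cancer cell lines were seeded in 1536-well plates and dosed by pin tool the next day, with either a single drug or a fixed anchor-drug dose combined with five library-drug doses (not always all listed) spaced in √10 steps. Five days later, one step fixed the cells and stained their nuclei (final 0.05% Triton X-100, 1% formaldehyde, 1 ug/ml Hoechst), and nuclei were counted on 4× images. Relative viability is the nuclei count in treated wells divided by the count in vehicle wells, and each value is the median of duplicate plates.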

Compound in the test “Pemetrexed + Decitabine”: Nc1nc2[nH]cc(CCc3ccc(C(=O)N[C@@H](CCC(=O)O)C(=O)O)cc3)c2c(=O)[nH]1 [Pemetrexed] + Nc1ncn([C@H]2C[C@H](O)[C@@H](CO)O2)c(=O)n1 [Decitabine] (partner 2 µM)
Put shortly:
as §1

Compound in the test “Pemetrexed + Lapatinib”: Nc1nc2[nH]cc(CCc3ccc(C(=O)N[C@@H](CCC(=O)O)C(=O)O)cc3)c2c(=O)[nH]1 [Pemetrexed] + CS(=O)(=O)CCNCc1ccc(-c2ccc3ncnc(Nc4ccc(OCc5cccc(F)c5)c(Cl)c4)c3c2)o1 [Lapatinib] (partner 2 µM)
The procedure, abridged:
as §1

Compound in the test “Idelalisib + Pictilisib”: CC[C@H](Nc1ncnc2[nH]cnc12)c1nc2cccc(F)c2c(=O)n1-c1ccccc1 [Idelalisib] + CS(=O)(=O)N1CCN(Cc2cc3nc(-c4cccc5[nH]ncc45)nc(N4CCOCC4)c3s2)CC1 [Pictilisib] (partner 1 µM)
The procedure, abridged:
as §1

In the case of SW 900, the relative viability was determined as 0.553 with Idelalisib + OSI-027 (first compound 0.04 µM); 0.642 in the test with Idelalisib + OSI-027 (first compound 0.1265 µM); 0.376 with Idelalisib + OSI-027 (first compound 0.4 µM); 0.744 in the test with Idelalisib + OSI-027 (first compound 1.265 µM); 0.373 with Idelalisib + OSI-027 (first compound 4 µM); 0.342 with Pemetrexed + Decitabine (first compound 0.002 µM). In addition, the relative viability in the test with Pemetrexed + Decitabine (first compound 0.006325 µM) stood at 0.433; in the test with Pemetrexed + Decitabine (first compound 0.02 µM), 0.553; with Pemetrexed + Decitabine (first compound 0.06325 µM), 0.377; with Pemetrexed + Decitabine (first compound 0.2 µM), 0.424.
Take NCI-H2228: the relative viability came out at 0.687 in the test with Idelalisib + OSI-027 (first compound 0.04 µM); 0.725 with Idelalisib + OSI-027 (first compound 0.1265 µM); 0.453 with Idelalisib + OSI-027 (first compound 0.4 µM); 0.637 with Idelalisib + OSI-027 (first compound 1.265 µM); 0.597 with Idelalisib + OSI-027 (first compound 4 µM); 0.928 in the test with Pemetrexed + Lapatinib (first compound 0.002 µM). Also, the relative viability in the test with Pemetrexed + Lapatinib (first compound 0.006325 µM) was found to be 0.854; with Pemetrexed + Lapatinib (first compound 0.02 µM), 1.4; with Pemetrexed + Lapatinib (first compound 0.06325 µM), 0.784; in the test with Pemetrexed + Lapatinib (first compound 0.2 µM), 0.379; in the test with Idelalisib + Pictilisib (first compound 0.04 µM), 0.383; in the test with Idelalisib + Pictilisib (first compound 0.1265 µM), 0.367. Moreover, the relative viability with Idelalisib + Pictilisib (first compound 0.4 µM) came out at 0.355; with Idelalisib + Pictilisib (first compound 1.265 µM), 0.396; with Idelalisib + Pictilisib (first compound 4 µM) it was 0.421.
With LCLC-103H, the relative viability with Idelalisib + OSI-027 (first compound 0.04 µM) stood at 0.545; with Idelalisib + OSI-027 (first compound 0.1265 µM) it was 0.497; in the test with Idelalisib + OSI-027 (first compound 0.4 µM), 0.368; in the test with Idelalisib + OSI-027 (first compound 1.265 µM), 0.459; with Idelalisib + OSI-027 (first compound 4 µM), 0.424; with Pemetrexed + Decitabine (first compound 0.002 µM) it was 0.722. Also, the relative viability with Pemetrexed + Decitabine (first compound 0.006325 µM) was determined as 0.723; with Pemetrexed + Decitabine (first compound 0.02 µM) it was 0.743; with Pemetrexed + Decitabine (first compound 0.06325 µM) it was 0.699; with Pemetrexed + Decitabine (first compound 0.2 µM) it was 0.76; with Idelalisib + Pictilisib (first compound 0.04 µM) it was 0.756; with Idelalisib + Pictilisib (first compound 0.1265 µM), 0.63. Moreover, the relative viability with Idelalisib + Pictilisib (first compound 0.4 µM) came to 0.517; in the test with Idelalisib + Pictilisib (first compound 1.265 µM) it was 0.586; with Idelalisib + Pictilisib (first compound 4 µM) it was 0.574.
For the cell line NCI-H2342, the relative viability in the test with Idelalisib + OSI-027 (first compound 0.04 µM) came to 0.587; with Idelalisib + OSI-027 (first compound 0.1265 µM), 0.613; in the test with Idelalisib + OSI-027 (first compound 0.4 µM), 0.582; with Idelalisib + OSI-027 (first compound 1.265 µM), 0.641; with Idelalisib + OSI-027 (first compound 4 µM), 0.618; with Pemetrexed + Decitabine (first compound 0.002 µM), 0.675. For the same cell line, the relative viability is 0.701 with Pemetrexed + Decitabine (first compound 0.006325 µM), 0.767 with Pemetrexed + Decitabine (first compound 0.02 µM), 0.716 in the test with Pemetrexed + Decitabine (first compound 0.06325 µM) and 0.835 with Pemetrexed + Decitabine (first compound 0.2 µM).
Turning to NCI-H522, the relative viability was 0.823 in the test with Idelalisib + OSI-027 (first compound 0.04 µM); 0.711 with Idelalisib + OSI-027 (first compound 0.1265 µM); 0.729 in the test with Idelalisib + OSI-027 (first compound 0.4 µM); 0.771 with Idelalisib + OSI-027 (first compound 1.265 µM); 0.698 with Idelalisib + OSI-027 (first compound 4 µM); 0.624 in the test with Pemetrexed + Decitabine (first compound 0.002 µM). Also, the relative viability in the test with Pemetrexed + Decitabine (first compound 0.006325 µM) was determined as 0.692; in the test with Pemetrexed + Decitabine (first compound 0.02 µM), 0.721; with Pemetrexed + Decitabine (first compound 0.06325 µM), 0.691; in the test with Pemetrexed + Decitabine (first compound 0.2 µM), 0.73.
Turning to EBC-1, the relative viability with Pemetrexed + Lapatinib (first compound 0.002 µM) amounted to 0.22; in the test with Pemetrexed + Lapatinib (first compound 0.006325 µM) it was 0.193; with Pemetrexed + Lapatinib (first compound 0.02 µM) it was 0.205; with Pemetrexed + Lapatinib (first compound 0.06325 µM), 0.214; with Pemetrexed + Lapatinib (first compound 0.2 µM), 0.192; with Idelalisib + Pictilisib (first compound 0.04 µM), 0.399. For the same cell line, the relative viability in the test with Idelalisib + Pictilisib (first compound 0.1265 µM) amounted to 0.42; in the test with Idelalisib + Pictilisib (first compound 0.4 µM), 0.343; with Idelalisib + Pictilisib (first compound 1.265 µM), 0.368; in the test with Idelalisib + Pictilisib (first compound 4 µM) it was 0.209.
As to ChaGo-K-1, the relative viability with Idelalisib + OSI-027 (first compound 0.04 µM) is 0.618; with Idelalisib + OSI-027 (first compound 0.1265 µM), 0.55; with Idelalisib + OSI-027 (first compound 0.4 µM) it was 0.456; with Idelalisib + OSI-027 (first compound 1.265 µM), 0.576; with Idelalisib + OSI-027 (first compound 4 µM) it was 0.513; with Pemetrexed + Decitabine (first compound 0.002 µM), 0.538. Also, the relative viability is 0.531 in the test with Pemetrexed + Decitabine (first compound 0.006325 µM); 0.552 with Pemetrexed + Decitabine (first compound 0.02 µM); 0.531 with Pemetrexed + Decitabine (first compound 0.06325 µM); 0.368 in the test with Pemetrexed + Decitabine (first compound 0.2 µM); 0.788 with Idelalisib + Pictilisib (first compound 0.04 µM); 0.608 in the test with Idelalisib + Pictilisib (first compound 0.1265 µM). Moreover, the relative viability turned out to be 0.797 in the test with Idelalisib + Pictilisib (first compound 0.4 µM), 0.796 in the test with Idelalisib + Pictilisib (first compound 1.265 µM) and 0.791 with Idelalisib + Pictilisib (first compound 4 µM).
Take IA-LM: the relative viability in the test with Pemetrexed + Lapatinib (first compound 0.002 µM) was found to be 0.719; with Pemetrexed + Lapatinib (first compound 0.006325 µM) it was 0.869; with Pemetrexed + Lapatinib (first compound 0.02 µM) it was 1.03; with Pemetrexed + Lapatinib (first compound 0.06325 µM), 0.827; with Pemetrexed + Lapatinib (first compound 0.2 µM), 0.636; in the test with Idelalisib + Pictilisib (first compound 0.04 µM), 0.275. The relative viability with Idelalisib + Pictilisib (first compound 0.1265 µM) turned out to be 0.344; in the test with Idelalisib + Pictilisib (first compound 0.4 µM), 0.358; with Idelalisib + Pictilisib (first compound 1.265 µM), 0.445; with Idelalisib + Pictilisib (first compound 4 µM) it was 0.296.
Consider NCI-H1703, for which the relative viability came out at 1.02 with Pemetrexed + Lapatinib (first compound 0.002 µM); 0.865 with Pemetrexed + Lapatinib (first compound 0.006325 µM); 1.59 in the test with Pemetrexed + Lapatinib (first compound 0.02 µM); 0.9 with Pemetrexed + Lapatinib (first compound 0.06325 µM); 0.976 in the test with Pemetrexed + Lapatinib (first compound 0.2 µM); 0.229 with Idelalisib + Pictilisib (first compound 0.04 µM). In addition, the relative viability in the test with Idelalisib + Pictilisib (first compound 0.1265 µM) was found to be 0.237; with Idelalisib + Pictilisib (first compound 0.4 µM), 0.23; with Idelalisib + Pictilisib (first compound 1.265 µM), 0.247; in the test with Idelalisib + Pictilisib (first compound 4 µM), 0.197.
As to A549, the relative viability was found to be 0.841 with Pemetrexed + Lapatinib (first compound 0.002 µM); 0.947 with Pemetrexed + Lapatinib (first compound 0.006325 µM); 1.13 with Pemetrexed + Lapatinib (first compound 0.02 µM); 0.987 with Pemetrexed + Lapatinib (first compound 0.06325 µM); 0.973 with Pemetrexed + Lapatinib (first compound 0.2 µM); 0.234 in the test with Pemetrexed + Decitabine (first compound 0.002 µM). For the same cell line, the relative viability with Pemetrexed + Decitabine (first compound 0.006325 µM) stood at 0.213; in the test with Pemetrexed + Decitabine (first compound 0.02 µM), 0.194; with Pemetrexed + Decitabine (first compound 0.06325 µM) it was 0.346; with Pemetrexed + Decitabine (first compound 0.2 µM), 0.281; with Idelalisib + Pictilisib (first compound 0.04 µM), 0.412; in the test with Idelalisib + Pictilisib (first compound 0.1265 µM), 0.516. Also, the relative viability with Idelalisib + Pictilisib (first compound 0.4 µM) was 0.409; with Idelalisib + Pictilisib (first compound 1.265 µM), 0.468; with Idelalisib + Pictilisib (first compound 4 µM), 0.371.
For NCI-H1623, the relative viability with Idelalisib + OSI-027 (first compound 0.04 µM) was 0.409; with Idelalisib + OSI-027 (first compound 0.1265 µM) it was 0.463; with Idelalisib + OSI-027 (first compound 0.4 µM), 0.45; with Idelalisib + OSI-027 (first compound 1.265 µM), 0.402; with Idelalisib + OSI-027 (first compound 4 µM), 0.386.
With NCI-H1563, the relative viability with Idelalisib + OSI-027 (first compound 0.04 µM) came out at 0.766; in the test with Idelalisib + OSI-027 (first compound 0.1265 µM), 0.757; with Idelalisib + OSI-027 (first compound 0.4 µM), 0.703; with Idelalisib + OSI-027 (first compound 1.265 µM), 0.767; with Idelalisib + OSI-027 (first compound 4 µM), 0.701; in the test with Pemetrexed + Lapatinib (first compound 0.002 µM), 0.83. Besides, the relative viability in the test with Pemetrexed + Lapatinib (first compound 0.006325 µM) was 0.804; with Pemetrexed + Lapatinib (first compound 0.02 µM), 0.921; with Pemetrexed + Lapatinib (first compound 0.06325 µM) it was 0.971; with Pemetrexed + Lapatinib (first compound 0.2 µM) it was 0.986; with Idelalisib + Pictilisib (first compound 0.04 µM), 0.656; in the test with Idelalisib + Pictilisib (first compound 0.1265 µM) it was 0.663. For the same cell line, the relative viability with Idelalisib + Pictilisib (first compound 0.4 µM) worked out at 0.583; with Idelalisib + Pictilisib (first compound 1.265 µM), 0.658; with Idelalisib + Pictilisib (first compound 4 µM), 0.678.

The record behind these values is the supplement of paper PMC10307832.
